These results are taken from patent US20210355106A1, “NEW AMINO-PYRIMIDONYL-PIPERIDINYL DERIVATIVES, A PROCESS FOR THEIR PREPARATION AND PHARMACEUTICAL COMPOSITIONS CONTAINING THEM” (LES LABORATOIRES SERVIER, priority 2018, published 2021).

Test [1] addresses T1, USP7 (Homo sapiens, UniProt Q93009, C315A).
T1 construct: 0.25 nM His-His-USP7 (aa208-560, |C315A|) was incubated with compound; His-His (N)
The test is described as follows: Inhibition of USP7 by Fluorescence Intensity (FLINT) readings, Ubiquitin-Rhodamine-110 substrate. The following applies: 0.25 nM His-His-USP7 (aa208-560), 60 minutes at 30° C. preincubation; Ki determined from IC50 according to Cer et al. Format: biochemical. An outline of the steps: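 Kinetic rate of Rhodamine-110 release from ubiquitin substrate (50 nM or 4 μM), read every 3 min for 21 min, after 60 min, 30 °C preincubation of 0.25 nM USP7 catalytic domain C315A with compound. Bicine pH 8.0 buffer, 10% DMSO; 11-point IC50 vs DMSO and no-enzyme controls, converted to Ki.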

Test [2] has as its system Z138 mantle cell lymphoma tumour cell lines. The test is described as follows: In vitro cytotoxicity, MTT assay. As to conditions: Homo sapiens, Z-138; Z138 cells, exposed to the test compounds for 96 hours. Type of test: cell-based. In a few lines:
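MTT viability read-out: after 96 hours of compound treatment, Z138 mantle cell lymphoma cells received MTT for 4 hours, and formazan production was quantified by absorbance at 540 nm.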
In general terms: Formazan colour is commonly taken as a measure of viable cells.

T1 sequence (Q93009 208-560 C315A): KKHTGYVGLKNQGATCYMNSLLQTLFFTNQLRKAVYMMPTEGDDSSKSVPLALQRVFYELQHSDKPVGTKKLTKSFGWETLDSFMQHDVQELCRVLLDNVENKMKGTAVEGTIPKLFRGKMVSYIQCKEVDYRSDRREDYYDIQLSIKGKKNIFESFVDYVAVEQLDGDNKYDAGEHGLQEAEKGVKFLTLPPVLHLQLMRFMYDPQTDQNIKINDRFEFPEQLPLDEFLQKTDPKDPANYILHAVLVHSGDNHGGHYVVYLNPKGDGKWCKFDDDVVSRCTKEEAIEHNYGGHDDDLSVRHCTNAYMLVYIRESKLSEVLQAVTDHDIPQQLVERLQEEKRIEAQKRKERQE

What is called Ki is the dissociation constant of the complex between target and ligand, obtained from inhibition or displacement. Broadly, the IC50 is the concentration that inhibits the measured activity by half. The low end stands for greater potency in that assay, the high end for weaker potency in that assay. For the molecule `CCOC(=O)C(c1ccccc1)N1CC[C@@H](C(=O)N2CCC(O)(Cn3cnc(Oc4ccc(F)cc4)c(N)c3=O)CC2)[C@H](c2ccccc2)C1` (some centres unmarked) [Example 70], the Ki in test [1] is 63 nM. This molecule also showed an IC50 in test [2] of 34 nM.
On the same counts, the results for `CN(C(=O)CN1CC[C@@H](C(=O)N2CCC(O)(Cn3cnc(Oc4ccc(F)cc4)c(N)c3=O)CC2)[C@H](c2ccccc2)C1)c1ccccc1` [Example 74] are 78 nM and 70 nM.
The molecule `Nc1c(Oc2ccc(F)cc2)ncn(CC2(O)CCN(C(=O)[C@@H]3CCN(C(=O)C(F)(F)c4ccccc4)C[C@H]3c3ccccc3)CC2)c1=O` [Example 75, 5-amino-3-[[1-[(3R,4R)-1-(2,2-difluoro-2-phenyl-acetyl)-3-phenyl-piperidine-4-carbonyl]-4-hydroxy-4-piperidyl]methyl]-6-(4-fluorophenoxy)pyrimidin-4-one] returned a Ki in test [1] of 39 nM. The molecule also came in with an IC50 in test [2] of 43 nM.
`Nc1c(Oc2ccc(F)cc2)ncn(CC2(O)CCN(C(=O)[C@@H]3CCN(C(=O)Nc4ccccc4)C[C@H]3c3ccccc3)CC2)c1=O` [Example 76, (3R,4R).4-[4-[[5-amino-4-(4-fluorophenoxy)-6-oxo-pyrimidin-1-yl]methyl]-4-hydroxy-piperidine-1-carbonyl]-N,3-diphenyl-piperidine-1-carboxamide] gave a Ki in test [1] of 17 nM. Further, in test [2], the IC50 turned out to be 22 nM.
Molecule `Nc1c(Oc2ccc(F)cc2)ncn(C[C@@]2(O)CCN(C(=O)[C@@H]3CCN(C(=O)Nc4ccccc4)C[C@H]3c3ccccc3)CC2(F)F)c1=O` [Example 77] displayed a Ki in test [1] of 37 nM. The molecule also came in with an IC50 in test [2] of 13 nM.
On the same counts, the results for `CN(C(=O)N1CC[C@@H](C(=O)N2CCC(O)(Cn3cnc(Oc4ccc(F)cc4)c(N)c3=O)CC2)[C@H](c2ccccc2)C1)c1ccccc1` [Example 78, (3R,4R)-4-[4-[[5-amino-4-(4-fluorophenoxy)-6-oxo-pyrimidin-1-yl]methyl]-4-hydroxy-piperidine-1-carbonyl]-N-methyl-N,3-diphenyl-piperidine-1-carboxamide] are 58 nM and 15 nM.
Turning to `COc1ccc(NC(=O)N2CC[C@@H](C(=O)N3CCC(O)(Cn4cnc(Oc5ccc(F)cc5)c(N)c4=O)CC3)[C@H](c3ccccc3)C2)cc1` [Example 80], the Ki in test [1] was found to be 19 nM. Moreover, the IC50 in test [2] is 6.2 nM.
On the same counts, the results for `Nc1c(Oc2ccc(F)cc2)ncn(CC2(O)CCN(C(=O)[C@@H]3CCN(C(=O)Nc4cccc(C(F)(F)F)c4)C[C@H]3c3ccccc3)CC2)c1=O` [Example 81, (3R,4R)-4-(4-{15-amino-4-(4-fluorophenoxy)-6-oxopyrimidin-[(6H)-yl]methyl}-4-hydroxypiperidine-1-carbonyl)-3-phenyl-N-[3-(trifluoromethyl)phenyl]piperidine-1-carboxamide] are 44 nM and 5.1 nM.
On the same counts, the results for `Nc1c(Oc2ccc(F)cc2)ncn(CC2(O)CCN(C(=O)[C@@H]3CCN(C(=O)Nc4cccc(Br)c4)C[C@H]3c3ccccc3)CC2)c1=O` [Example 83] are 42 nM and 8.5 nM.
Consider `Nc1c(Oc2ccc(F)cc2)ncn(CC2(O)CCN(C(=O)[C@@H]3CCN(C(=O)Nc4ccc(F)cc4)C[C@H]3c3ccccc3)CC2)c1=O` [Example 84, (3R,4R)-4-[4-[[5-amino-4-(4-fluorophenoxy)-6-oxo-pyrimidin-1-yl]methyl]-4-hydroxy-piperidine-1-carbonyl]-N-(4-fluorophenyl)-3-phenyl-piperidine-1-carboxamide], for which the Ki in test [1] was found to be 21 nM. For the same molecule, the IC50 in test [2] came to 18 nM.
The corresponding values for `Cc1ccc(-c2cccc(NC(=O)N3CC[C@@H](C(=O)N4CCC(O)(Cn5cnc(Oc6ccc(F)cc6)c(N)c5=O)CC4)[C@H](c4ccccc4)C3)c2)cn1` [Example 85, (3R,4R)-4-[4-[[5-amino-4-(4-fluorophenoxy)-6-oxo-pyrimidin-1-yl]methyl]-4-hydroxy-piperidine-1-carbonyl]-N-[3-(6-methyl-3-pyridyl)phenyl]-3-phenyl-piperidine-1-carboxamide] are 9.9 nM and 34 nM.
The corresponding values for `Nc1c(Oc2ccc(F)cc2)ncn(CC2(O)CCN(C(=O)[C@@H]3CCN(C(=O)Nc4nccs4)C[C@H]3c3ccccc3)CC2)c1=O` [Example 86, (3R,4R)-4-[4-[[5-amino-4-(4-fluorophenoxy)-6-oxo-pyrimidin-1-yl]methyl]-4-hydroxy-piperidine-1-carbonyl]-3-phenyl-N-thiazol-2-yl-piperidine-1-carboxamide] are 58 nM and 838 nM.
The corresponding values for `Nc1c(Oc2ccc(F)cc2)ncn(CC2(O)CCN(C(=O)[C@@H]3CCN(C(=O)Nc4nc5ccccc5s4)C[C@H]3c3ccccc3)CC2)c1=O` [Example 87, (3R,4R)-4-[4-[[5-amino-4-(4-fluorophenoxy)-6-oxo-pyrimidin-1-yl]methyl]-4-hydroxy-piperidine-1-carbonyl]-N-(1,3-benzothiazol-2-yl)-3-phenyl-piperidine-1-carboxamide] are 88 nM and 45 nM.
In test [1], `Nc1c(Oc2ccc(F)cc2)ncn(CC2(O)CCN(C(=O)[C@@H]3CCN(C(=O)Nc4ccccc4F)C[C@H]3c3ccccc3)CC2)c1=O` [Example 89] had a Ki of 20 nM. The IC50 in test [2] stood at 26 nM.
For `Cc1cc(C(=O)N2CC[C@@H](C(=O)N3CCC(O)(Cn4cnc(Oc5ccc(F)cc5)c(N)c4=O)CC3)[C@H](c3ccccc3)C2)ccn1` [Example 91, 5-amino-6-(4-fluorophenoxy)-3-[[4-hydroxy-1-[(3R,4R)-1-(2-methylpyridine-4-carbonyl)-3-phenyl-piperidine-4-carbonyl]4-piperidyl]methyl]pyrimidin-4-one], the Ki in test [1] was 13 nM. This molecule also returned an IC50 in test [2] of 76 nM.
The corresponding values for `Cc1cncc(C(=O)N2CC[C@@H](C(=O)N3CCC(O)(Cn4cnc(Oc5ccc(F)cc5)c(N)c4=O)CC3)[C@H](c3ccccc3)C2)c1` [Example 92, 5-amino-6-(4-fluorophenoxy)-3-({4-hydroxy-1-[(3R,4R)-1-(5-methylpyridine-3-carbonyl)-3-phenylpiperidine-4-carbonyl]piperidin-4-yl}methyl)pyrimidin-4(3H)-one] are 4.9 nM and 45.7 nM.
For the molecule `Cc1cccc(C(=O)N2CC[C@@H](C(=O)N3CCC(O)(Cn4cnc(Oc5ccc(F)cc5)c(N)c4=O)CC3)[C@H](c3ccccc3)C2)n1` [Example 93], the affinity in test [1], expressed as Ki, was 51 nM. Also, in test [2], the midpoint of inhibition, the IC50, lay at 86.4 nM.
Turning to `Cc1ccnc(C(=O)N2CC[C@@H](C(=O)N3CCC(O)(Cn4cnc(Oc5ccc(F)cc5)c(N)c4=O)CC3)[C@H](c3ccccc3)C2)c1` [Example 94, 5-amino-6-(4-fluorophenoxy)-3-[[4-hydroxy-1-[(3R,4R)-1-(4-methylpyridine-2-carbonyl)-3-phenyl-piperidine-4-carbonyl]-4-piperidyl]methyl]pyrimidin-4-one], affinity in test [1] was put at a Ki of 30 nM. The molecule further showed an IC50 in test [2] of 49 nM.
On the same counts, the results for `Cn1c(C(=O)N2CC[C@@H](C(=O)N3CCC(O)(Cn4cnc(Oc5ccc(F)cc5)c(N)c4=O)CC3)[C@H](c3ccccc3)C2)cnc1Br` [Example 95, 5-amino-3-({1-[(3R,4R)-1-(2-bromo-1-methyl-11H-imidazole-5-carbonyl)-3-phenylpiperidine-4-carbonyl]-4-hydroxypiperidin-4-yl}methyl)-6-(4-fluorophenoxy)pyrimidin-4(3H)-one] are 21 nM and 27 nM.
